Laboratory results published in US9404081B2, “Pyruvate kinase activators for use in therapy” (AGIOS PHARMACEUTICALS, INC., priority 2011, dated 2016).

Columns and labels:
Format in all cases: biochemical
PKR R510Q [1] = target: T1, PKR R510Q (Homo sapiens, UniProt P30613, R510Q); assay: PKR R510Q Single Point Percent Activation Assay; conditions: read-out: Act. % 510Q
How it was run: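 Test compound was used at a single concentration of 1 μM and preincubated 60 min at room temperature with PKR R510Q (40 ng/well). The buffer was 50 mM Tris pH 7.5, 100 mM KCl, 5 mM MgCl2, 1 mM DTT and 0.03% BSA. The reaction was started with 0.2 mM ADP and read as OD340 in an LDH-coupled system (0.11 mM PEP, 180 μM NADH).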

PKR T384W [2] = target: PKR T384W (Homo sapiens, UniProt P30613, T384W); assay: PKR T384W Single Point Percent Activation Assay; conditions: read-out: Act. % 384W
Sequence of PKR T384W (Homo sapiens, UniProt P30613, T384W) (P30613 whole entry T384W): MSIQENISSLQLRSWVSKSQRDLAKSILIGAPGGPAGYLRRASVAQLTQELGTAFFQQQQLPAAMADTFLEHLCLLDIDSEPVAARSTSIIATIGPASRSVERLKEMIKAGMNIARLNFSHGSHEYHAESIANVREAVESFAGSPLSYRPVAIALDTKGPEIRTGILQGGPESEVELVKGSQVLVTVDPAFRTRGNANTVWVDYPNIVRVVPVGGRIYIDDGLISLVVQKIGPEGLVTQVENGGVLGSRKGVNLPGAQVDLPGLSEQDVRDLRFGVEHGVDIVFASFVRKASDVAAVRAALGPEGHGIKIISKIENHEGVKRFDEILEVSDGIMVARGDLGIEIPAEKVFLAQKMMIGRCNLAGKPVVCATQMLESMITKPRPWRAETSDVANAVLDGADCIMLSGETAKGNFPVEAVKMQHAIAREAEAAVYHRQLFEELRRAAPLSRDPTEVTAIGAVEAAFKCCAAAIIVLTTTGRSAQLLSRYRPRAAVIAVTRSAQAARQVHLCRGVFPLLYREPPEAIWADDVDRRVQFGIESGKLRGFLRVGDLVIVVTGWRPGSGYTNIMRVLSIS
How it was run: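 Soluble PKR T384W (300 ng/well) preincubated 60 min at RT with 1 μM compound in 50 mM Tris pH 7.5, 100 mM KCl, 5 mM MgCl2, 1 mM DTT, 0.03% BSA. Started with ADP (0.08 mM); PEP 0.23 mM, LDH-coupled NADH (180 μM) consumption read at OD340, room temperature.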

wild type PKR = wild type PKR (Homo sapiens, UniProt P30613); assay: PKR Mutant Assay (AC50), wild type PKR; conditions: read-out: PKR WT AC50
Sequence of wild type PKR (P30613 whole entry): as the sequence (P30613 whole entry T384W) above, with W384T counted along it
Procedure: (§1) • PKR or PKR mutant enzyme solution was diluted in assay buffer. • 2 μL of test compound was added into wells first, and then 180 μL reaction mix was added. • Reactions mixture with test compound was assembled except for ADP, and plates were stored for 60 minutes at room temperature. • 20 uL ADP was added to start reaction at room temperature and reaction progress was measured as changes in absorbance at 340 nm wavelength at room temperature.
(§2) Test Compound Preparation: • Test compound stock was made at 100× concentration in 100% DMSO (10 mM) • 1 to 3 dilutions were made for 11 points (i.e. 50 μl of first concentration added to 100 μl 100% DMSO to yield 3.33 mM, 50 μl of this added to 100 μl DMSO to yield 1.11 mM, and so forth) • 1 to 100 dilution into assay (2 μl in 200 μl) yielded starting concentration of 100 μM, decreasing 3 fold for 11 points. Assay Buffer: 100 mM KCl, 50 mM Tris 7.5, 5 mM MgCl2, 1 mM DTT, 0.03% BSA Reaction Mixture: PKR mutant enzyme: 80-400 ng/well; ADP: 0.22-1.65 mM; PEP: 0.1-0.5 mM; NADH: 180 uM; LDH: 0.5 units (Sigma#59023); DTT: 1 mM; BSA: 0.03%.

PKR wt = PKR wt (Homo sapiens, UniProt P30613); assay: PKR WT Single Point Percent Activation Assay
Sequence of PKR wt (P30613 whole entry): as the sequence (P30613 whole entry T384W) above, with W384T counted along it
How it was run: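 Single concentration of 1 μM compound preincubated 60 min at RT with PKR wt (100 ng/well) in Tris pH 7.5, KCl, MgCl2, DTT, BSA. Reaction started with ADP (0.48 mM final) with PEP 0.15 mM, coupled LDH/NADH (180 μM), read at OD340, room temperature; given as percent activation.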

PKR R532W [3] = target: T2, PKR R532W (Homo sapiens, UniProt P30613, R532W); assay: PKR Mutant Assay (AC50), PKR R532W
T2 sequence (P30613 whole entry R532W): as the sequence (P30613 whole entry T384W) above, with W384T, R532W counted along it
Procedure: as §1, §2

PKR R532W [4] = target: T2, PKR R532W; assay: PKR R532W Single Point Percent Activation Assay; conditions: read-out: Act, % 532W
How it was run: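 PKR R532W (100 ng/well) preincubated 60 min at RT with compound at 1 μM in Tris pH 7.5, KCl, MgCl2, DTT, BSA. Reaction started with ADP (0.36 mM), with PEP 0.1 mM, NADH 180 μM and LDH coupling; read at OD340, room temperature.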

PKR T384W [5] = target: PKR T384W (Homo sapiens, UniProt P30613); assay: PKR Mutant Assay (AC50), PKR T384W
Sequence of PKR T384W (Homo sapiens, UniProt P30613) (P30613 whole entry T384M): as the sequence (P30613 whole entry T384W) above, with W384M counted along it
Procedure: as §1, §2

PKR R479H = PKR R479H (Homo sapiens, UniProt P30613, R479H); assay: PKR Mutant Assay (AC50), PKR R479H
Sequence of PKR R479H (P30613 whole entry R479H): as the sequence (P30613 whole entry T384W) above, with W384T, R479H counted along it
Procedure: as §1, §2

PKR R510Q [6] = target: T1, PKR R510Q; assay: PKR Mutant Assay (AC50), PKR R510Q
Procedure: as §1, §2

PKR G364D = PKR G364D (Homo sapiens, UniProt P30613, G364D); assay: PKR Mutant Assay (AC50), PKR G364D
Sequence of PKR G364D (P30613 whole entry G364D): as the sequence (P30613 whole entry T384W) above, with G364D, W384T counted along it
Procedure: as §1, §2

T1 sequence (P30613 whole entry R510Q): as the sequence (P30613 whole entry T384W) above, with W384T, R510Q counted along it

Row | SMILES | activation at 1 µM (PKR R510Q [1]) [%] | activation at 1 µM (PKR T384W [2]) [%] | AC50 (wild type PKR) [nM] | activation at 1 µM (PKR wt) [%] | AC50 (PKR R532W [3]) [nM] | activation at 1 µM (PKR R532W [4]) [%] | AC50 (PKR T384W [5]) [nM] | AC50 (PKR R479H) [nM] | AC50 (PKR R510Q [6]) [nM] | AC50 (PKR G364D) [nM]
1 | COc1ccccc1N1CCN(C(=O)c2ccc(NS(=O)(=O)c3cccc4cccnc34)cc2)C(C)C1 (stereo not shown) | 101 to 500 | 101 to 500 | < 100 | 101 to 500 | < 100 | 101 to 500 | < 100 | < 100 | > 500 | 101 to 500
2 | CC1CN(Cc2ccccc2)CC(C)N1C(=O)c1ccc(NS(=O)(=O)c2cccc3cccnc23)cc1 (stereo not shown) | 101 to 500 | 101 to 500 | – | 101 to 500 | – | 101 to 500 | – | – | < 100 | –
3 | CCOC(=O)N1CCN(C(=O)c2ccc(NS(=O)(=O)c3cccc4cccnc34)cc2)[C@@H](C)C1 | 1 to 100 | 101 to 500 | > 500 | 101 to 500 | > 500 | 101 to 500 | – | – | – | –
4 | O=C(c1ccc(NS(=O)(=O)c2cccc3cccnc23)cc1)N1CCN(C[C@@H]2CCOC2)CC1 | 101 to 500 | 101 to 500 | < 100 | 1 to 100 | < 100 | 1 to 100 | < 100 | < 100 | 101 to 500 | –

Continued, values first:

Row | activation at 1 µM (PKR R510Q [1]) [%] | activation at 1 µM (PKR T384W [2]) [%] | AC50 (wild type PKR) [nM] | activation at 1 µM (PKR wt) [%] | AC50 (PKR R532W [3]) [nM] | activation at 1 µM (PKR R532W [4]) [%] | AC50 (PKR T384W [5]) [nM] | AC50 (PKR R479H) [nM] | AC50 (PKR R510Q [6]) [nM] | AC50 (PKR G364D) [nM] | SMILES
5 | 101 to 500 | 101 to 500 | < 100 | 101 to 500 | > 500 | 101 to 500 | – | – | – | – | CC(C)OC(=O)N1[C@H](C)CN(C(=O)c2ccc(NS(=O)(=O)c3cccc4cccnc34)cc2)C[C@@H]1C
6 | 101 to 500 | 101 to 500 | < 100 | 101 to 500 | < 100 | 1 to 100 | < 100 | < 100 | 101 to 500 | – | O=C(c1ccc(NS(=O)(=O)c2cccc3cccnc23)cc1)N1CCN(C[C@H]2CCOC2)CC1
7 | 101 to 500 | 101 to 500 | < 100 | 101 to 500 | < 100 | 101 to 500 | – | – | > 500 | – | CC(C)OC(=O)N1CCN(C(=O)c2ccc(NS(=O)(=O)c3cccc4cccnc34)cc2)[C@H](C)C1
